In publication PMC5164911, “Comparative Analysis of the Interaction between Different Flavonoids and PDIA3” (Oxidative Medicine and Cellular Longevity, 2016):
Like-named read-outs stand apart in the source and are kept apart here.

How the values were obtained:
[1] = target: T1, PDIA3 (Homo sapiens, UniProt P30101); assay: Disulfide reductase activity with DiE-GSSG fluorogenic probe; assay type: biochemical; details: DiE-GSSG substrate; for Inhibition of disulfide reductase (redox) activity: 20 μM flavonoid (Figure 7)
T1 construct: made in house; host or cells: E. coli BL21 (vector pET21)
T1 sequence (P30101 25-505): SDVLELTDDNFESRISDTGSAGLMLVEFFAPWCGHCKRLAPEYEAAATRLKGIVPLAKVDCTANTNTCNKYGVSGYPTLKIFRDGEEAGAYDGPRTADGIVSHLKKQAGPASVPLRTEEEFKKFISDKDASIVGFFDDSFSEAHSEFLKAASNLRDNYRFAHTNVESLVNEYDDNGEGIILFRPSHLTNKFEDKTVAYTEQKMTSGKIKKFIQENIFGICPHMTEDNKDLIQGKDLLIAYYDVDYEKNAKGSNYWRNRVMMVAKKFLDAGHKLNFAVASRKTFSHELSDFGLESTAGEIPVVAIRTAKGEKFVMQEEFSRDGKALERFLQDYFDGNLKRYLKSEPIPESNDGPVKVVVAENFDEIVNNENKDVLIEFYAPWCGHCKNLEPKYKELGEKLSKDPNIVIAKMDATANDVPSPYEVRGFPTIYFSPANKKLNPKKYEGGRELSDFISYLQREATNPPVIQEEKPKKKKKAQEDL
Method: Disulfide reductase activity of ERp57 was monitored by sensitive fluorescent assay using dieosin glutathione disulfide (DiE-GSSG) as fluorogenic probe. DiE-GSSG was synthesized by the reaction of eosin isothiocyanate with oxidized glutathione (GSSG) according to the method of Raturi and Mutus with some modifications. DiE-GSSG concentration was determined spectrophotometrically (ℇ 525 = 88,000 M^-1 cm^−1). Disulfide reductase activity was assayed in a reaction buffer containing 2 mM EDTA, 150 nM DiE-GSSG, and 5 μM DTT in PBS. A 20 μl aliquot of a stock solution of PDIA3 (1 μM) was added to the reaction mixture and DiE-GSSG reduction was monitored at 545 nm with excitation at 520 nm, at 25°C with continuous stirring. Reductase activity was calculated as the initial velocity in fluorescence increase. To test the effect of flavonoids on PDIA3 activity, the protein stock solution was previously incubated for 15 minutes at room temperature with different concentrations of each flavonoid and then a 20 μl aliquot subjected to assay in a reaction buffer containing the same concentration of the flavonoid.
Fluorescence quenching constant (K SV) values were given as means ± standard deviation and values of disulfide reductase activity were expressed in % of control sample ± relative standard deviation. All measurements were performed at least three times. Dunnett's test was used to compare the obtained reductase activity data with the activity of the untreated protein and a p value of <0.01 was considered as statistically significant.

[2] = target: T1, PDIA3; assay: Fluorescence quenching titration of PDIA3 intrinsic fluorescence; assay type: binding; details: for Stern-Volmer constant (K SV): 0.5∗10^−6 M PDIA3 in reduced conditions, pH 7.4, 25°C, flavonoid 0 to 10∗10^−6 M, mean and standard deviation; for bimolecular quenching rate constant (K q): K SV = K q τ0 with τ0 of the order of 10^−8 s; for binding constant (K b): equation of Bi et al., reiterative calculation of Sun et al.
Method: Quantitative analysis of the interaction between individual flavonoids and PDIA3 was performed by fluorimetric titration. […] Briefly, solution of PDIA3 (0.5 μM) or a and a′ domains (1 μM) in phosphate buffered saline (PBS) containing DTT 0.1 mM and EDTA 0.2 mM were titrated in quartz cuvette by stepwise additions, at 5 min time intervals, of individual flavonoid solution (1 mM in PBS/ethanol 50 : 50 v/v freshly prepared from a 20 mM stock solution in DMSO). […] To minimize the inner-filter effect we limited the highest concentration reached in the titration test up to 10 μM. All experiments were carried out at 25°C. Each spectrum was the mean of three repeated scans. Fluorescence spectra of appropriate blanks (flavonoids without proteins) were recorded under the same experimental conditions and subtracted from the corresponding flavonoid-protein system to correct the fluorescence background.
Quenching analysis was performed on PDIA3 (0.5 μM), in the reduced form, by adding stepwise increasing concentration of each molecule and recording the protein fluorescence spectra. For some flavonoids the analysis was extended to isolate a′ domain (1 μM), always in the reduced form. […] For each ligand molecule the Stern-Volmer quenching constant was obtained by linear regression of plots of F 0/F versus [L].
The Stern-Volmer quenching constant may be expressed as K SV = K q τ 0, where K q is the quencher rate coefficient and τ 0 is the average lifetime of the emissive excited state of the protein in the absence of the quencher.
The number of binding sites (n) and the binding constant (K b) were obtained by plotting log((F 0 − F)/F) versus log(1/([L t] − n(F 0 − F)[P t]/F 0)) using the reiterative calculation process described by Sun et al., assuming a similar affinity for each binding site.

[3] = K d = 1/K b, reduced PDIA3, pH 7.4, 25°C, read-out: dissociation constant (K d)

SMILES | Effect on disulfide reductase activity (in words) [1] | Stern-Volmer constant (K SV) [2] [M⁻¹] | bimolecular quenching rate constant (K q) ([2]; reduced PDIA3, pH 7.4, 25°C) [M⁻¹ s⁻¹] | Kd [2, 3] [µM] | binding constant (K b) ([2]; reduced PDIA3, pH 7.4, 25°C) [M⁻¹] | Inhibition of disulfide reductase (redox) activity [1] | Inhibition of disulfide reductase (redox) activity ([1]; listed as eupatorin) | Kd ([2]; Figure 8, no unit printed in the picture, read-out: Dissociation constant (Kd)) [µM]
O=c1cc(-c2ccc(O)cc2)oc2cc(O)cc(O)c12 [Apigenin, apigenin] | no evident effect | 54332 ± 1185 | 5.43e+12 | 17 | 58700 | – | – | –
COc1ccc(-c2cc(=O)c3c(O)c(OC)c(OC)cc3o2)cc1O [Eupatorin, eupatorin] | noticeable inhibitory effect | 89362 ± 688 | 8.94e+12 | 10.3 | 96700 | 40% | up to 40% | 10.3
COc1ccc(-c2cc(=O)c3c(OC)c(OC)c(OC)cc3o2)cc1O [Eupatorin-5-methyl ether, eupatorin-5-methyl-ether] | noticeable inhibitory effect | 90016 ± 1875 | 9e+12 | 11.1 | 90400 | up to 40% | – | –
